Counter-ions that a name gives are not always drawn.
Tested on: spontaneously breathing rats
Experiment: Minute ventilation (MV) and cardiovascular parameters in naive rats
Format: in vivo, rat
Parameters: unit not given here
Method: All surgical procedures were performed under anesthesia induced by 2% isoflurane in compressed medical grade air. With rats in supine position, the right femoral vein was catheterized using polyethylene tubing (PE-50). This catheter was used for fluid and drug administration. Simultaneously, the right femoral artery was also catheterized for monitoring blood pressure and heart rate. In order to measure the respiratory parameters in spontaneously breathing rats, trachea was intubated using 13 gauge tracheal tube (2.5 mm ID, Instech Solomon, Pa.).
After establishing a stable base-line at 1.5% isoflurane, compounds (typically at a dose of 1 mpk) were administered IV, and ventilatory parameters were generated from spontaneously breathing rats, along with cardiovascular output (mean arterial pressure (MAP) and heart rate). Maximum peak minute ventilatory (MV) responses (MPR), along with changes in minute ventilation versus baseline (AMV) were obtained as shown in the tables below.

[1] = Table 8, 1 mpk, 20% HPβCD, pH 4
[2] = Table 8, 1 mpk, 20% HPβCD, pH 6
[3] = Table 8, 1 mpk, 20% HPβCD, pH 4.5
[4] = 1 mpk IV, 20% HPβCD, pH not given

CCCNc1nc(NCCC)c2cc[nH]c2n1
MV MPR (1 mpk IV, 20% HPβCD, pH 4-6): 336 | MV ΔMV (1 mpk IV, 20% HPβCD, pH 4-6): 164

C=CCNc1nc(N2CCC(c3nc(NCCC)nc(NCCC)n3)CC2)c2ccn(C)c2n1 [6-(1-(2-(allylamino)-7-methyl-7H-pyrrolo[2,3-d]pyrimidin-4-yl)piperidin-4-yl)-N^2,N^4-di-n-propyl-1,3,5-triazine-2,4-diamine]
MV MPR (1 mpk IV, 20% HPβCD, pH 5): 154 | MV ΔMV (1 mpk IV, 20% HPβCD, pH 5): 60

CCCNc1nc(N(C)N(C)C)c2ccn(C)c2n1 [7-methyl-N-n-propyl-4-(1,2,2-trimethylhydrazinyl)-7H-pyrrolo[2,3-d]pyrimidin-2-amine]
MV MPR (1 mpk IV, 15/65/20, pH 5): 167 | MV ΔMV (1 mpk IV, 15/65/20, pH 5): 89 | MV MPR (1 mpk IV, 20% HPβCD, pH 4): 175 | MV ΔMV (1 mpk IV, 20% HPβCD, pH 4): 83

CC(C)CNc1nc(NCC(C)C)nc(N2C3CCC2CC(=O)C3)n1 [(1,5)-8-(4,6-bis(isobutylamino)-1,3,5-triazin-2-yl)-8-azabicyclo[3.2.1]octan-3-one]
MV MPR (1 mpk IV, 20% HPβCD, pH 5): 237 | MV ΔMV (1 mpk IV, 20% HPβCD, pH 5): 137

CCCNc1nc(NCCC)nc(N2C3CCC2CC(=O)C3)n1 [(1,5)-8-(4,6-bis(n-propylamino)-1,3,5-triazin-2-yl)-8-azabicyclo[3.2.1]octan-3-one]
MV MPR (1 mpk IV, 20% HPβCD, pH 5): 213 | MV ΔMV (1 mpk IV, 20% HPβCD, pH 5): 98

CCCNc1nc2c(c(N3CCC(O)CC3)n1)CCN2C [CLII, 2-(n-Propyl)amino-4-(4-hydroxypiperidin-1-yl)-7-methyl-pyrrolidino[2,3-d]pyrimidine]
MV MPR (1 mpk IV, 20% HPβCD, pH 4): 49 | MV ΔMV (1 mpk IV, 20% HPβCD, pH 4): 0.33

CCCNc1nc2c(c(N3C4CCC3CC(O)C4)n1)CCN2C (stereo not drawn) [CLV, 8-(7-methyl-2-(n-propylamino)-pyrrolidino[2,3-d]pyrimidin-4-yl)-8-azabicyclo[3.2.1]octan-3-ol]
MV MPR (1 mpk IV, 20% HPβCD, pH 4): 170 | MV ΔMV (1 mpk IV, 20% HPβCD, pH 4): 57

C=CCNc1nc(NOC)c2ccn(C)c2n1 [CLX, N-(2-(Propen-2-yl)amino-7-methyl-pyrrolo[2,3d]pyrimidin-4-yl)-O-methyl-hydroxylamine]
MV MPR (1 mpk IV, 20% HPβCD, pH 5): 182 | MV ΔMV (1 mpk IV, 20% HPβCD, pH 5): 103

COCCCNc1nc(NCCCOC)nc(N(C)OC)n1 [CXIII]
MV DMV [1]: 46 | MV MPR [1]: 167.1

CCCNc1nc(N(C)OC)c2cc[nH]c2n1 [CXLI, N-(2-Propylamino-7H-pyrrolo[2,3d]pyrimidin-4-yl)-N,O-dimethyl-hydroxylamine]
MV MPR (1 mpk IV, 20% HPβCD, pH 4-6): 264 | MV ΔMV (1 mpk IV, 20% HPβCD, pH 4-6): 163

CCCNc1nc(NCCC)c2c(n1)NCC2 [CXLIX, 2,4-Bis-(n-propyl)amino-7H-pyrrolidino[2,3-d]pyrimidine]
MV MPR (1 mpk IV, 20% HPβCD, pH 4): 175 | MV ΔMV (1 mpk IV, 20% HPβCD, pH 4): 93 | MV MPR (1 mpk IV, 20% HPβCD, pH 6): 263 | MV ΔMV (1 mpk IV, 20% HPβCD, pH 6): 167 | MV DMV [1]: 93 | MV MPR [1]: 175 | MV DMV [2]: 167 | MV MPR [2]: 263

CON(C)c1nc2nc(n1)NCCOCCOCCOCCN2 [CXVII, N-(5,8,11-Trioxa-2,14,16,18,19-pentaazabicyclo[13.3.1]nonadeca-1(18),15 (19),16(17)-trien-17-yl)-N,O-dimethylhydroxylamine]
MV DMV [3]: 15 | MV MPR [3]: 143.8

CON(C)c1nc(NCC2CCOCC2)nc(NCC2CCOCC2)n1 [CXV]
MV DMV (Table 8, 1 mpk, 15/65/20, pH 4): 33.8 | MV MPR (Table 8, 1 mpk, 15/65/20, pH 4): 155.7

CCCNc1nc(NC(C)C)c2c(n1)N(C)CC2 [CXXVI]
MV MPR (1 mpk IV, 20% HPβCD, pH 5): 327 | MV ΔMV (1 mpk IV, 20% HPβCD, pH 5): 224

CCCNc1nc(NC)c2c(n1)N(C)CC2 [CXXXI, 2-(n-Propyl)amino-4-methylamino-7-methyl-pyrrolidino[2,3-d]pyrimidine]
MV MPR (1 mpk IV, 20% HPβCD, pH 4): 204 | MV ΔMV (1 mpk IV, 20% HPβCD, pH 4): 130

CCCNc1nc(NC(C)C)c2c(n1)N(C(C)C)CC2 [CXXXVI, 2-(n-Propyl)amino-4-(i-propyl)amino-7-i-propyl-pyrrolidino[2,3-d]pyrimidine]
MV MPR (1 mpk IV, 20% HPβCD, pH 4): 238 | MV ΔMV (1 mpk IV, 20% HPβCD, pH 4): 143

CCCNc1cc(N(C)OC)nc(NCCC)n1 [CXX]
MV MPR (1 mpk IV, 20% HPβCD, pH 4-6): 355 | MV ΔMV (1 mpk IV, 20% HPβCD, pH 4-6): 243 | MV DMV [3]: 243 | MV MPR [3]: 355

CCCNc1nc(NCCC)nc(N(C)OCc2ccccc2)n1 [LIII, O-Benzyl-N-(4,6-bis-n-propylamino-[1,3,5]triazin-2-yl)-N-methyl-hydroxylamine]
MV MPR (1 mpk IV, 20% HPβCD, pH 4-6): 288 | MV ΔMV (1 mpk IV, 20% HPβCD, pH 4-6): 179

CCCNc1nc(NCCC)nc(N(C)OC(C)C)n1 [LXIV, N-(4,6-Bis-n-propylamino-[1,3,5]triazin-2-yl)-O-isopropyl-N-methyl-hydroxylamine]
MV MPR [4]: 271 | MV ΔMV [4]: 209

CCCNc1nc(NCCC)nc(N(OCc2ccccc2)C(C)C)n1 [LXXII, 6-((Benzyloxy)(isopropyl)amino)-N^2,N^4-dipropyl-1,3,5-triazine-2,4-diamine]
MV DMV [1]: 82 | MV MPR [1]: 176

CCCNc1nc(NCCC)nc(N(CC)OC(C)C)n1 [LXXVI, N-(4,6-Bis-n-propylamino-[1,3,5]triazin-2-yl)-N-ethyl-O-isopropyl-hydroxylamine]
MV MPR (1 mpk IV, 20% HPβCD, pH 4): 308 | MV ΔMV (1 mpk IV, 20% HPβCD, pH 4): 191 | MV DMV [1]: 191 | MV MPR [1]: 308

CCCNc1nc(NCCC)nc(N(C)OCC(C)C)n1 [LXXXII, N-(4,6-Bis-n-propylamino-[1,3,5]triazin-2-yl)-O-isobutyl-N-methyl-hydroxylamine]
MV MPR (1 mpk IV, 20% HPβCD, pH 4): 248 | MV ΔMV (1 mpk IV, 20% HPβCD, pH 4): 133 | MV DMV [1]: 133 | MV MPR [1]: 248

CCCNc1nc(NCCC)nc(N(C)OCc2cccs2)n1 [LXXXIV, 6-(Methyl(thiophen-2-ylmethoxy)amino)-N^2,N^4-di-n-propyl-1,3,5-triazine-2,4-diamine]
MV MPR (1 mpk IV, 20% HPβCD, pH 4): 213 | MV ΔMV (1 mpk IV, 20% HPβCD, pH 4): 110 | MV DMV [1]: 110 | MV MPR [1]: 213

CCCNc1nc(NCC)nc(NOC)n1 [N^2-ethyl-6-(methoxyamino)-N^4-n-propyl-1,3,5-triazine-2,4-diamine]
MV MPR (1 mpk IV, 20% HPβCD, pH 4-6): 208 | MV ΔMV (1 mpk IV, 20% HPβCD, pH 4-6): 117

CCCNc1nc(NC(C)C)c2ccn(C(C)C)c2n1 [N^4,7-diisopropyl-N^2-n-propyl-7H-pyrrolo[2,3-d]pyrimidine-2,4-diamine]
MV MPR (1 mpk IV, 20% HPβCD, pH 6): 250 | MV ΔMV (1 mpk IV, 20% HPβCD, pH 6): 155

CCCNc1nc(NC(C)C)c2ccn(C)c2n1 [N^4-isopropyl-7-methyl-N^2-n-propyl-7H-pyrrolo[2,3-d]pyrimidine-2,4-diamine]
MV MPR (1 mpk IV, 20% HPβCD, pH 5): 402 | MV ΔMV (1 mpk IV, 20% HPβCD, pH 5): 320

CCCNc1nc(NC(C)C)c2cc[nH]c2n1 [N^4-isopropyl-N^2-n-propyl-7H-pyrrolo[2,3-d]pyrimidine-2,4-diamine]
MV MPR (1 mpk IV, 20% HPβCD, pH 4): 259 | MV ΔMV (1 mpk IV, 20% HPβCD, pH 4): 172

CCCNc1nc(NCCC)nc(N(C)OCC2CC2)n1 [XCI, N-(4,6-Bis-n-propylamino-[1,3,5]triazin-2-yl)-O-cyclopropylmethyl-N-methyl-hydroxylamine]
MV MPR (1 mpk IV, 20% HPβCD, pH 4): 261 | MV ΔMV (1 mpk IV, 20% HPβCD, pH 4): 152 | MV DMV [1]: 152 | MV MPR [1]: 261

CCCNc1nc(NCCC)nc(N(C)NC)n1 [XLIX, N-(4,6-Bis-n-propylamino-[1,3,5]triazin-2-yl)-N,N′-dimethyl-hydrazine]
MV MPR (1 mpk IV, 20% HPβCD, pH 5): 338 | MV ΔMV (1 mpk IV, 20% HPβCD, pH 5): 216

CCCNc1nc(N)nc(N(C)OC)n1 [XLVII, 6-(Methoxy(methyl)amino)-N2-propyl-1,3,5-triazine-2,4-diamine]
MV MPR (1 mpk IV, 20% HPβCD, pH 5): 150.73 | MV ΔMV (1 mpk IV, 20% HPβCD, pH 5): 61.48

CCCNc1nc(NCCC)nc(N(C)O)n1 [XLVIII, N-(4,6-Bis-n-propylamino-[1,3,5]triazin-2-yl)-N-methyl-hydroxylamine]
MV MPR (1 mpk IV, 15/65/20, pH 5): 114 | MV ΔMV (1 mpk IV, 15/65/20, pH 5): 30.13

CNc1nc(NC)nc(N(C)OC)n1 [XX, N-(4,6-Bis-methylamino-[1,3,5]triazin-2-yl)-N,O-dimethyl-hydroxylamine hydrochloride]
MV MPR (1 mpk IV, 20% HPβCD, pH 4-6): 213 | MV ΔMV (1 mpk IV, 20% HPβCD, pH 4-6): 60

CCNc1nc(NCC)nc(N(C)OC)n1 [XXII, N-(4,6-Bis-ethylamino-[1,3,5]triazin-2-yl)-N,O-dimethyl-hydroxylamine hydrochloride]
MV MPR (1 mpk IV, 20% HPβCD, pH 4-6): 252 | MV ΔMV (1 mpk IV, 20% HPβCD, pH 4-6): 130

CON(C)c1nc(NCC(C)C)nc(NCC(C)C)n1 [XXIX, N-(Bis-4,6-(2-methylpropylamino)) [1,3,5]triazin-2-yl)-N,O-dimethyl-hydroxylamine hydrochloride]
MV MPR (1 mpk IV, 20% HPβCD, pH 4-6): 253 | MV ΔMV (1 mpk IV, 20% HPβCD, pH 4-6): 161

CON(C)c1nc(NC2CC2)nc(NC2CC2)n1 [XXXIII, 4,6-Bis-N-cyclopropylamino-[1,3,5]triazin-2-yl)-N,O-dimethyl-hydroxylamine hydrochloride]
MV MPR (1 mpk IV, 20% HPβCD, pH 4-6): 147 | MV ΔMV (1 mpk IV, 20% HPβCD, pH 4-6): 53

CON(C)c1nc(NCC(C)(C)C)nc(NCC(C)(C)C)n1.Cl [XXXI]
MV DMV [1]: 43 | MV MPR [1]: 140

Reference: patent US9162992B2, “Compounds and compositions for treatment of breathing control disorders or diseases” (GALLEON PHARMACEUTICALS, INC., priority 2010, dated 2015)
